Source: patent US20240158370A1, “CK1 alpha AND DUAL CK1 alpha / GSPT1 DEGRADING COMPOUNDS” (Innovo Therapeutics, Inc., priority 2022, published 2024)

Key:
CK1α = biological target: T1, CK1α (Homo sapiens, UniProt P48729+Q96SW2); experiment: HiBiT degradation assay, CK1α, Procedure A; type: cell-based
T1 construct: CSNK1A1-HiBit KI HEK293(LgBit) Cells; host or cells: HEK293(LgBit) knock-in cells
Protocol: (§1) Compounds were spotted onto Cornin 384-Well, Cell Culture-Treated, Flat-Bottom, Low Flange Microplate (Fisher Scientific, Catalog #07-201-013) using a Tecan D300e digital dispenser. Ten-point dose response curves spanning from 10 μM to 0.005 μM with a 0.1% DMSO tolerance were used.
(§2) Cells were dissociated from tissue 182 cm^2 Tissue Culture Flask (CellTreat Catalog #229351) by washing the cells with PBS (Fisher Scientific Catalog #BP3994) followed by dissociation with Trypsin-EDTA (0.25%) (Thermo Scientific Catalog #25200056). Trysin was neutralized and cells were resuspended with DMEM+10% FBS. Cells were centrifuged for 5 minutes at 1200 RPMs. Cell culture media was aspirated off and cells were resuspended with DMEM+10% FBS. Cell density was determined using a Denovix CellDrop BF cell counter. Cell density was adjusted to 1×10^6 cells/ml. 40 μl of cells was added to compound treated tissue culture plates and incubated for six hours at 37° C. After six hours, cell culture plates were removed from tissue culture incubator and cooled to room temperature. 40 μl of Nano-GloHiBiT Lytic Detection Reagent (Promega, Catalog #N3040) was added to each well. Plates were placed on an orbital shaker (600 rpm) for 20 minutes. Luminescence was measured using an Envsion plate reader (Perkin Elmer). DC50 curves and Ymin were generated using a 4-parameter curve fit with GraphPad Prism software (Prism Corporation).
(§3) Results from the HiBiT assay (DC50 (nM) and Ymin (% remaining)) are shown below. All CK1α data was generated according to Procedure A. GSPT1 data for Examples 1-600, 603-620 and 703-705 was generated according to Procedure A. GSPT1 data for Examples 601, 621-702 and 706-735 was generated according to Procedure B.

GSPT1 = GSPT1 (Homo sapiens, UniProt P15170+Q96SW2); experiment: HiBiT degradation assay, GSPT1, Procedure A; type: cell-based; parameters: HiBit-GSPT1 KI HEK293(LgBit) Cells; host or cells: HEK293(LgBit) knock-in cells
Protocol: as §1, §2, §3

T1 sequence (P48729 whole entry): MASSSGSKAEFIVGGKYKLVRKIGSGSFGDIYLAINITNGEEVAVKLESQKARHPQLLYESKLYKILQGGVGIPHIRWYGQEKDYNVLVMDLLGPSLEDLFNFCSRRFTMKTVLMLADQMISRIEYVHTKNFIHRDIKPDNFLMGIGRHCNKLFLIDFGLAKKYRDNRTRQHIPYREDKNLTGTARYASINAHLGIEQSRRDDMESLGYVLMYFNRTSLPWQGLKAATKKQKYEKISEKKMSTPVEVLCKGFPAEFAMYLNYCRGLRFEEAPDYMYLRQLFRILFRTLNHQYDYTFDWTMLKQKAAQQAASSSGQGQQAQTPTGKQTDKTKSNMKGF
T1 sequence (Q96SW2 whole entry): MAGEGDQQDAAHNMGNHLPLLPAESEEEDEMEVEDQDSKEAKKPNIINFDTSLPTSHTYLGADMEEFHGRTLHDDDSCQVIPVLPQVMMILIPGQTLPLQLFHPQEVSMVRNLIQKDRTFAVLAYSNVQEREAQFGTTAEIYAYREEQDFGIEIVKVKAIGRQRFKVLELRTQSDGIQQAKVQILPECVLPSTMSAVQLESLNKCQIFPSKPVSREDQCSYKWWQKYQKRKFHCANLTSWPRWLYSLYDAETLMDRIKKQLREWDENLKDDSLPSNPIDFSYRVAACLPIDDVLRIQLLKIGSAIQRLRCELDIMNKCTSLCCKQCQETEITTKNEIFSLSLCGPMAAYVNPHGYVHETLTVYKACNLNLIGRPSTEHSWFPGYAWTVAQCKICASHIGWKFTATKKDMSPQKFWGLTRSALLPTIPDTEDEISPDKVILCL
T1 sequence (Q16531 whole entry partner): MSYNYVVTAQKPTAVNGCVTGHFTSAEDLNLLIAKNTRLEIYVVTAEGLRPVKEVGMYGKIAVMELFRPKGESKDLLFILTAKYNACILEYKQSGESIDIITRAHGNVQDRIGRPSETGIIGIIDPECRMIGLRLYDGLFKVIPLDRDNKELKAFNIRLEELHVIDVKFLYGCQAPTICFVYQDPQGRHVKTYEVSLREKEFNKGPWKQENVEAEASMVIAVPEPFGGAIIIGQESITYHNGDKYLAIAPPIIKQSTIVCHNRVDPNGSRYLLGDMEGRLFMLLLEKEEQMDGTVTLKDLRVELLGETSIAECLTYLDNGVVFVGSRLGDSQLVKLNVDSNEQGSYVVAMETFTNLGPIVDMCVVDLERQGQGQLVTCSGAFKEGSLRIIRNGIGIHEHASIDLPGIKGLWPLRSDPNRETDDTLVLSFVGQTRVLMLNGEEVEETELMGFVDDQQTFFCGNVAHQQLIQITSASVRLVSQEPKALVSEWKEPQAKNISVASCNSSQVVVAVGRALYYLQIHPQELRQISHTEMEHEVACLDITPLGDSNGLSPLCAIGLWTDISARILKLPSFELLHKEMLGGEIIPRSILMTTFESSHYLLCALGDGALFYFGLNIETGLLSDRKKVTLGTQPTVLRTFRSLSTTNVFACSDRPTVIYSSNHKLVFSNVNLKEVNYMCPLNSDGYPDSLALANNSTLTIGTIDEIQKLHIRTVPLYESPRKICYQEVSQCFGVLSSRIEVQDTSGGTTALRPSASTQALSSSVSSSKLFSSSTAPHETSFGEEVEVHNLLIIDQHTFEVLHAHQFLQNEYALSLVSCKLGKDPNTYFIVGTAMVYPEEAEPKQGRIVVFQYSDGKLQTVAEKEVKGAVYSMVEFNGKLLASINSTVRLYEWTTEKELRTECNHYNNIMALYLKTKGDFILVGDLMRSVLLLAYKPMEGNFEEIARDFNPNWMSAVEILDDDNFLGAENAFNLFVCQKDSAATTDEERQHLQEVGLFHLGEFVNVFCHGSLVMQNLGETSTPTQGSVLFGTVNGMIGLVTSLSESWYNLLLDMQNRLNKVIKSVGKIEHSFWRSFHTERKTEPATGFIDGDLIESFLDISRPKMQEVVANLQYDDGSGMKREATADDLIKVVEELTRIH
Sequence of GSPT1 (P15170 whole entry): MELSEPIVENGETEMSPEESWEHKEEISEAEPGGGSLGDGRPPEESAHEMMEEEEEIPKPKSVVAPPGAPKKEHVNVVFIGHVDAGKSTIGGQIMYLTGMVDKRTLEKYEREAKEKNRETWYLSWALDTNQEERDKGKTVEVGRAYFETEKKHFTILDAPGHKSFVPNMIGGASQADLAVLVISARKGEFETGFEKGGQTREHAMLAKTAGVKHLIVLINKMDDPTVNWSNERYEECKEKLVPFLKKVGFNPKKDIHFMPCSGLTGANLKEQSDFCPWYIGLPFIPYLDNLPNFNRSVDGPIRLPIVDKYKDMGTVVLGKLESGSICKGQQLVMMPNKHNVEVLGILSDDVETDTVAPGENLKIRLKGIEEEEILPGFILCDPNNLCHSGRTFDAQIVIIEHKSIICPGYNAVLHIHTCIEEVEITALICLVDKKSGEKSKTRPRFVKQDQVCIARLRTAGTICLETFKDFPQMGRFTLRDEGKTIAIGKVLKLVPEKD
Sequence of GSPT1 (Q96SW2 whole entry): as the sequence (Q96SW2 whole entry) above
Sequence of GSPT1 (Q16531 whole entry partner): as the sequence (Q16531 whole entry partner) above

| CK1α Ymin (CK1α; six hours incubation) | DC50 (CK1α; six hours incubation) [nM] | DC50 (GSPT1; six hours incubation) [nM] | GSPT1 Ymin (GSPT1; six hours incubation) | CK1α Ymin (CK1α; six hours) | DC50 (CK1α; six hours) [nM] | DC50 (GSPT1; six hours) [nM] | GSPT1 Ymin (GSPT1; six hours) | Structure (SMILES) |
| --- | --- | --- | --- | --- | --- | --- | --- | --- |
| D (D = >10- 25% remaining) | < 25 | ≥ 25 | F (F = >75-100% remaining) |  |  |  |  | Cn1cnc(-c2ccc3c(c2)CN(C2CCC(=O)NC2=O)C3=O)c1-c1cccc(F)c1Cl (centres unmarked) [Example 262] |
| D (D = >10- 25% remaining) | < 25 | ≥ 25 | F (F = >75-100% remaining) |  |  |  |  | Cn1cnc(-c2ccc3c(c2)CN(C2CCC(=O)NC2=O)C3=O)c1-c1ccc(Oc2cccnc2)cc1 (centres unmarked) [Example 308] |
|  |  |  |  | D (D = >10- 25% remaining) | < 25 | < 25 | E (E = >25-75% remaining) | Cn1cnc(-c2ccc3c(c2)CN(C2CCC(=O)NC2=O)C3=O)c1-c1cc2ccccc2[nH]1 (centres unmarked) [Example 527] |
|  |  |  |  | D (D = >10- 25% remaining) | < 25 | ≥ 25 |  | Cn1nc(-c2ccc3c(c2)CN(C2CCC(=O)NC2=O)C3=O)cc1C1CCOCC1 (centres unmarked) [Example 538, 3-(5-(1-methyl-5-(tetrahydro-2H-pyran-4-yl)-1H-pyrazol-3-yl)-1-oxoisoindolin-2-yl)piperidine-2,6-dione] |
| C (C = 0-10% remaining) | < 25 | < 25 | E (E = >25-75% remaining) |  |  |  |  | Cc1csc(-c2c(-c3ccc4c(c3)CN(C3CCC(=O)NC3=O)C4=O)ncn2C)c1 (centres unmarked) [Example 230] |
|  |  |  |  | D (D = >10- 25% remaining) | < 25 | ≥ 25 | F (F = >75-100% remaining) | Cn1ncc(-c2ccc3c(c2)CN(C2CCC(=O)NC2=O)C3=O)c1-c1c[nH]c2ccccc12 (centres unmarked) [Example 474] |
| E (E = >25-75% remaining) | ≥ 25 | ≥ 25 | F (F = >75-100% remaining) |  |  |  |  | Cn1cnc(-c2cc3c(s2)C(=O)N(C2CCC(=O)NC2=O)C3)c1-c1ccccc1 (centres unmarked) [Example 16, 3-(2-(1-methyl-5-phenyl-1H-imidazol-4-yl)-6-oxo-4,6-dihydro-5H-thieno[2,3-c]pyrrol-5-yl)piperidine-2,6-dione] |
| D (D = >10- 25% remaining) | < 25 | ≥ 25 | F (F = >75-100% remaining) |  |  |  |  | Cn1cnc(-c2ccc3c(c2)CN(C2CCC(=O)NC2=O)C3=O)c1-c1cc(F)cc(C#N)c1 (centres unmarked) [Example 185] |
|  |  |  |  | F (F = >75-100% remaining) | ≥ 25 | ≥ 25 | F (F = >75-100% remaining) | Cc1cc(-c2c(-c3ccc4c(c3)CN(C3CCC(=O)NC3=O)C4=O)cnn2C)n(C)n1 (centres unmarked) [Example 454] |
|  |  |  |  | D (D = >10- 25% remaining) | < 25 | < 25 | F (F = >75-100% remaining) | Cn1cnc(-c2ccc3c(c2)CN(C2CCC(=O)NC2=O)C3=O)c1-c1ccc2ccn(C)c2c1 (centres unmarked) [Example 529] |
|  |  |  |  | E (E = >25-75% remaining) | < 25 | ≥ 25 | F (F = >75-100% remaining) | Cc1cccc(C)c1-c1c(-c2ccc3c(c2)CN(C2CCC(=O)NC2=O)C3=O)ncn1C (centres unmarked) [Example 442] |
|  |  |  |  | E (E = >25-75% remaining) | ≥ 25 | ≥ 25 | F (F = >75-100% remaining) | COc1ccncc1-c1c(-c2ccc3c(c2)CN(C2CCC(=O)NC2=O)C3=O)ncn1C (centres unmarked) [Example 524] |
|  |  |  |  | C (C = 0-10% remaining) | < 25 | < 25 | E (E = >25-75% remaining) | Cn1cnc(-c2ccc3c(c2)CN(C2CCC(=O)NC2=O)C3=O)c1-c1ccc(-n2cccn2)cc1 (centres unmarked) [Example 444] |
| E (E = >25-75% remaining) | ≥ 25 | ≥ 25 | C (C = 0-10% remaining) |  |  |  |  | Cn1cnc(-c2ccccc2)c1-c1ccc2c(c1)CN(C1CCC(=O)NC1=O)C2=O (centres unmarked) [Example 21, 3-(5-(1-Methyl-4-phenyl-1H-imidazol-5-yl)-1-oxoisoindolin-2-yl)piperidine-2,6-dione] |
| E (E = >25-75% remaining) | ≥ 25 | ≥ 25 | F (F = >75-100% remaining) |  |  |  |  | Cn1c(-c2ccc3c(c2)CN(C2CCC(=O)NC2=O)C3=O)cnc1-c1ccccc1 (centres unmarked) [Example 28, 3-(5-(1-methyl-2-phenyl-1H-imidazol-5-yl)-1-oxoisoindolin-2-yl)piperidine-2,6-dione] |
| E (E = >25-75% remaining) | ≥ 25 | < 25 | F (F = >75-100% remaining) |  |  |  |  | COc1cc(C#N)ccc1-c1c(-c2ccc3c(c2)CN(C2CCC(=O)NC2=O)C3=O)ncn1C (centres unmarked) [Example 263] |
| D (D = >10- 25% remaining) | < 25 | ≥ 25 | F (F = >75-100% remaining) |  |  |  |  | Cn1cnc(-c2ccc3c(c2)CN(C2CCC(=O)NC2=O)C3=O)c1-c1cccc(C(F)F)c1 (centres unmarked) [Example 202] |
| E (E = >25-75% remaining) | < 25 | ≥ 25 | F (F = >75-100% remaining) |  |  |  |  | Cn1ncc(-c2ccc3c(c2)CN(C2CCC(=O)NC2=O)C3=O)c1-c1ccc(F)c(F)c1 (centres unmarked) [Example 134] |
|  |  |  |  | E (E = >25-75% remaining) | ≥ 25 | ≥ 25 | F (F = >75-100% remaining) | Cn1ncc(-c2ccc3c(c2)CN(C2CCC(=O)NC2=O)C3=O)c1-c1cnn(Cc2ccccc2)c1 (centres unmarked) [Example 480] |
| D (D = >10- 25% remaining) | < 25 | ≥ 25 | F (F = >75-100% remaining) |  |  |  |  | Cn1ncc(-c2ccc3c(c2)CN(C2CCC(=O)NC2=O)C3=O)c1-c1ccc(-c2cccnc2)cc1 (centres unmarked) [Example 103] |
| E (E = >25-75% remaining) | < 25 | ≥ 25 | E (E = >25-75% remaining) |  |  |  |  | O=C1CCC(N2Cc3cc(-n4nccc4-c4ccccc4)ccc3C2=O)C(=O)N1 (centres unmarked) [Example 33, 3-(1-Oxo-5-(5-phenyl-1H-pyrazol-1-yl)isoindolin-2-yl)piperidine-2,6-dione] |
|  |  |  |  | D (D = >10- 25% remaining) | ≥ 25 | ≥ 25 | F (F = >75-100% remaining) | Cn1cnc(-c2ccc3c(c2)CN(C2CCC(=O)NC2=O)C3=O)c1-c1ccc(C(=O)Nc2ccccn2)cc1 (centres unmarked) [Example 447] |
| D (D = >10- 25% remaining) | < 25 | ≥ 25 | F (F = >75-100% remaining) |  |  |  |  | Cn1ncc(-c2ccc3c(c2)CN(C2CCC(=O)NC2=O)C3=O)c1-c1ccc(-c2ccncc2)cc1 (centres unmarked) [Example 153] |
|  |  |  |  | C (C = 0-10% remaining) | < 25 | ≥ 25 | F (F = >75-100% remaining) | Cn1ncc(-c2ccc3c(c2)CN(C2CCC(=O)NC2=O)C3=O)c1-c1cccs1 (centres unmarked) [Example 471] |
|  |  |  |  | E (E = >25-75% remaining) | < 25 | ≥ 25 |  | CN1CCN(c2cccc(-c3c(-c4ccc5c(c4)CN(C4CCC(=O)NC4=O)C5=O)ncn3C)c2)CC1 (centres unmarked) [Example 408] |
|  |  |  |  | F (F = >75-100% remaining) | ≥ 25 | ≥ 25 | F (F = >75-100% remaining) | Cn1ncc(-c2ccc3c(c2)CN(C2CCC(=O)NC2=O)C3=O)c1-c1ccnnc1 (centres unmarked) [Example 450] |
| D (D = >10- 25% remaining) | < 25 | ≥ 25 | F (F = >75-100% remaining) |  |  |  |  | O=C1CCC(N2Cc3cc(-c4c[nH]nc4-c4ccccc4)ccc3C2=O)C(=O)N1 (centres unmarked) [Example 5, 3-(1-Oxo-5-(3-phenyl-1H-pyrazol-4-yl)isoindolin-2-yl) piperidine-2,6-dione] |
|  |  |  |  | D (D = >10- 25% remaining) | < 25 | ≥ 25 | F (F = >75-100% remaining) | Cn1ncc(-c2ccc3c(c2)CN(C2CCC(=O)NC2=O)C3=O)c1-c1ccc2c(ccn2C)c1 (centres unmarked) [Example 387] |
|  |  |  |  | F (F = >75-100% remaining) | < 25 | ≥ 25 | F (F = >75-100% remaining) | Cn1ncc(-c2ccc3c(c2)CN(C2CCC(=O)NC2=O)C3=O)c1-c1cnc2c(ccn2C)c1 (centres unmarked) [Example 390] |
|  |  |  |  | C (C = 0-10% remaining) | < 25 |  |  | Cn1nc(-c2ccc3c(c2)CN(C2CCC(=O)NC2=O)C3=O)cc1-c1ccc(C(F)(F)F)cc1 (centres unmarked) [Example 495, 3-(5-(1-methyl-5-(4-(trifluoromethyl)phenyl)-1H-pyrazol-3-yl)-1-oxoisoindolin-2-yl)piperidine-2,6-dione] |
